Test results: patent US11840686B2, “Modulation of prekallikrein (PKK) expression” (Ionis Pharmaceuticals, Inc., priority 2013, dated 2023)
Strand notation (5' to 3'): a small letter for the sugar, then the base; units joined by * are phosphorothioate-linked, units joined directly phosphodiester-linked; [ ] holds rarer units or linkages, { } end groups; capitals alone tell only the bases. e = 2'-O-(2-methoxyethyl) (MOE); [5mC] = 5-methylcytosine; d = 2'-deoxy (DNA)

What was measured:
[1] = tested on: captopril-induced vascular permeability; assay: Combination of PKK and Factor 12 antisense oligonucleotides on captopril-induced vascular permeability (Example 15); format: in vivo, mouse; conditions: positive control: PBS + captopril 20 μg ip + HOE-140 30 μg ip
Description: Mice were treated varying doses of ISIS 410944, a 5-10-5 MOE gapmer targeting Factor 12 ([…]; SEQ ID NO: 2247), and ISIS 482584 in a captopril-induced vascular permeability model.
Group 1 consisted of 4 mice and was treated with PBS administered subcutaneously twice a week for 3 weeks. No other treatment was administered to Group 1 which served as a control group to measure the basal levels of vascular permeability.
Group 2 consisted of 8 mice and was treated with PBS administered subcutaneously twice a week for 3 weeks. At the end of the treatment period, the mice were intraperitoneally administered 20 μg of captopril.
Group 3 consisted of 4 mice and was treated with PBS administered subcutaneously twice a week for 3 weeks. At the end of the treatment period, the mice were intraperitoneally administered 20 μg of captopril. The mice were also intraperitoneally administered 30 μg of HOE-140. Group 3 served as a positive control for inhibition of captopril-induced vascular permeability.
Groups 4, 5, 6, 7, and 8 consisted of 8 mice each and were treated with 2.5 mg/kg, 5 mg/kg, 10 mg/kg, 20 mg/kg, or 40 mg/kg (corresponding to 5 mg/kg, 10 mg/kg, 20 mg/kg, 40 mg/kg, or 80 mg/kg per week), respectively of ISIS 482584 and ISIS 410944 each administered subcutaneously twice a week for 3 weeks. At the end of the treatment period, the mice of all the groups were intraperitoneally administered 20 μg of captopril. Groups 4-8 served as the experimental treatment groups for examining the effect of ISIS 410944 and ISIS 482584 on captopril-induced vascular permeability.
All the groups were then injected with 30 mg/kg of Evans Blue solution in the tail vein. The mice were sacrificed 30 min after the Evans Blue solution administration and colons, feet, ears, and intestines were harvested.
The harvested tissues from the feet, colon, and ears were placed in formamide solution overnight to leach out the Evans Blue dye. The formamide solution containing feet and ear tissue was heated to 55° C. and left overnight. Higher OD values are associated with higher levels of permeability.

[2] = tested on: human PKK mRNA; assay: Human PKK mRNA in liver of human KLKB1 transgenic mice (Example 7); format: in vivo; conditions: transgenic mice
Method in brief: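 Transgenic mice carrying a 37,390 bp human KLKB1 fragment dosed subcutaneously twice weekly for 3 weeks at 2.5, 5.0, 10 or 20 mg/kg/week; PBS controls. Liver harvested 48 h after the last dose. Human PKK mRNA measured by real-time PCR and expressed as % inhibition versus PBS.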

[3] = tested on: PKK protein; assay: PKK protein in cynomolgus monkey plasma by ELISA (Example 8); format: in vivo; conditions: 40 mg/kg sc
Description: Approximately 0.9 mL of blood was collected each time from all available animals at pre-dose, day 17, day 31, day 45, day 59, and day 73, and placed in tubes containing 3.2% sodium citrate. The tubes were centrifuged (3000 rpm for 10 min at room temperature) to obtain plasma. PKK protein levels were measured in the plasma by ELISA. The results are presented in Table 52, expressed as percentage inhibition compared to the PBS control levels.

[4] = C-reactive protein and complement C3 levels in cynomolgus monkeys (Example 8); conditions: cynomolgus monkey plasma, 40 mg/kg sc
[5] = tested on: Factor 12; assay: Factor 12 activation in mouse plasma, Spectrozyme FXIIa amidolytic assay (Example 17); format: in vivo; conditions: for % F12 activation compared to the PBS control: 3 weeks, mouse plasma
Description: The effect of antisense inhibition of PKK mRNA on Factor 12 protein activation was evaluated.
Group 1 consisted of 8 mice and was treated with PBS administered subcutaneously twice a week for 3 weeks. No other treatment was administered to Group 1 which served as a control group to measure Factor 12 activation.
Groups 2, 3, 4, 5, and 6 consisted of 8 mice each and were treated with 2.5 mg/kg, 5 mg/kg, 10 mg/kg, 20 mg/kg, or 40 mg/kg (corresponding to 5 mg/kg, 10 mg/kg, 20 mg/kg, 40 mg/kg, or 80 mg/kg per week), respectively of ISIS 482584 administered subcutaneously twice a week for 3 weeks. Groups 2-6 served as the treatment groups for measuring the effect of ISIS 482584 on Factor 12 activation.
At the end of the treatment period, plasma was harvested from the mice for the Spectrozyme® Factor 12a based amidolytic assay for Factor 12 in plasma.
Plasma (5 μL) was added to 85 μL of PBS with 1 μg/ml dextran sulfate (500 kDa) in a 96 well polypropelene microplate and the solution was incubated for 5 minutes at room temperature. Spectrozyme® FXIIa (10 μL of a 2 mM solution) and 0.2 mM KALLISTOP™ solution was added and the absorbance kinetic was measured at 405 nm. Factor 12 activation was measured in the linear phase of absorbance accumulation. The results are presented in Table 78 as a percentage of Factor 12 activation measured in the PBS control sample.

## NC(N)=NCCC[C@@H](N)C(=O)N[C@@H](CCCN=C(N)N)C(=O)N1CCC[C@H]1C(=O)N1C[C@H](O)C[C@H]1C(=O)NCC(=O)N[C@@H](Cc1cccs1)C(=O)N[C@@H](CO)C(=O)N1Cc2ccccc2C[C@@H]1C(=O)N1[C@H](C(=O)N[C@@H](CCCN=C(N)N)C(=O)O)C[C@@H]2CCCC[C@@H]21 [HOE-140, Icatibant, reference compound]
[1]
  OD600 nm of Evans Blue dye, Colon: 0.23
  OD600 nm of Evans Blue dye, Ears: 0.04
  OD600 nm of Evans Blue dye, Feet: 0.06
  OD600 nm of Evans Blue dye, Intestines: 0.15

## Tes Ges mCes Aes Aes Gds Tds mCds Tds mCds Tds Tds Gds Gds mCds Aes Aes Aes mCes Ae [ISIS 546254]
[2]; 2.5 mg/kg/week s.c. twice a week for 3 weeks
  human PKK mRNA inhibition: 31%
[2]; 5.0 mg/kg/week s.c. twice a week for 3 weeks
  human PKK mRNA inhibition: 55%
[2]; 10 mg/kg/week s.c. twice a week for 3 weeks
  human PKK mRNA inhibition: 84%
[2]; 20 mg/kg/week s.c. twice a week for 3 weeks
  human PKK mRNA inhibition: 83%
[3]; Day 17
  PKK protein level reduction (%) in plasma relative to control levels: 38%
[3]; Day 31
  PKK protein level reduction (%) in plasma relative to control levels: 51%
[3]; Day 45
  PKK protein level reduction (%) in plasma relative to control levels: 63%
[3]; Day 59
  PKK protein level reduction (%) in plasma relative to control levels: 74%
[3]; Day 73
  PKK protein level reduction (%) in plasma relative to control levels: 73%
[4]
  C3 (% of baseline): 61 % of baseline
  CRP: 0.8 mg/dL

## ISIS 482584: 5-10-5 MOE gapmer targeting murine PKK, GGCATATTGGTTTTTGGAAT; SEQ ID NO: 2244 (antisense eG*eG*e[5mC]*eA*eT*dA*dT*dT*dG*dG*dT*dT*dT*dT*dT*eG*eG*eA*eA*eT)
[5]; 5 mg/kg/wk sc
  % F12 activation compared to the PBS control: 82%
[5]; 10 mg/kg/wk sc
  % F12 activation compared to the PBS control: 63%
[5]; 20 mg/kg/wk sc
  % F12 activation compared to the PBS control: 47%
[5]; 40 mg/kg/wk sc
  % F12 activation compared to the PBS control: 24%
[5]; 80 mg/kg/wk sc
  % F12 activation compared to the PBS control: 14%
[5]; mouse plasma after 3 weeks s.c. treatment
  activation of Factor 12: decreased activation of Factor 12
